Data on five compounds can be found in patent US5843925A, “Methods for inhibiting angiogenesis, proliferation of endothelial or tumor cells and tumor growth” (American Cyanamid Company, priority 1994, dated 1998).

The structures appear in SMILES notation. Values after ≈ are worked out from the molar mass of the structure shown. Where a name gives a salt, the structure may show the parent alone.

For one data set, the system named is HTB 161. Description: Antiproliferative activity in human tumor cell lines (HTB 161). Format: cell-based. How it is done: (§1) PROTOCOLS 1, 2, and 3 are described in greater detail hereinbelow. In general, according to PROTOCOLS 1 and 2, the target ABAE and/or Human Tumor cells are exposed to the compound of Formula I for 48 hours. PROTOCOL 3 exposes ABAE cells to the compounds for 4 days. A detailed description of the protocol is as follows:
(§2) The antiproliferative activity of the compounds of Formula I of the present invention is evaluated in a panel comprised of human tumor cell lines and an adult bovine aortic endothelial cell line (ABAE). The human tumor cell lines are from
(§3) Cultures are renewed after 20 passages with cells from a fresh stock of batch-frozen early passage cells. Cell lines are routinely checked for mycoplasma contamination (Genprobe). In a laminar flow hood, cells (1-5×10^4) are plated into 96-well microtiter plates in a volume of 0.1 ml/well with a bulk microtiter dispenser (Denley). […] Compounds are added using a Tomtec dispenser which simultaneously dispenses from one 96-well plate, containing the drug dilutions, to the plates containing the cells. After two days of continuous drug exposure, 50% cold trichloroacetic acid (TCA) is added to 10% final concentration to fix the cells, and after 60 minutes at 4° C., the TCA is aspirated and the plates are washed 5 times with deionized water using a microtiter plate washer. […] A 0.4% solution of the dye, sulforhodamine B, in […] is added to the plates, and the plates are washed 5 times with 1% glacial acetic acid using the automatic plate washed. The bound stain is solubilized with 0.1 ml of 10 mM Tris base. The optical densities are read from an automatic spectrophotometric plate reader (Dynatech) directly to a main frame computer (VAX 8600).
(§4) Positive controls, that include standard chemotherapeutic drugs (i.e., adriamycin, cisplatin, etc.), are included in every experiment.
(§5) Background optical density measurements (complete media-cells, and complete media+drug-cells) are automatically subtracted from the appropriate control and test wells. Mean values and standard errors are determined from duplicate wells. A measure is also made of the optical density at time when the drugs are added. The number of cells after treatment (P), as % of control, is calculated for every concentration of drug, as follows: [formula] wherein: T is optical density measurement for treated cells after 48 hours;
(§6) C is optical density measurement for untreated cells after 48 hours;
(§7) Co is optical density measurement for cells at the time of drug addition.
(§8) IC50 of growth inhibition is calculated from the sets of P values using the RS-1 data package (BBN Software).
(§9) Antiproliferative Activity in Human Tumor Cell Lines
(§10) The antiproliferative activity of the compounds of Formula I is evaluated in the panel comprised of human tumor cell lines as listed in PROTOCOL 1. This assay is a slight modification of PROTOCOL 1. The modifications include:
(§11) 1) each concentration for each compound is tested in a single well;
(§12) 2) compounds are tested at 20, 4, 0.8, 0.16 microgram/ml and additionally in some experiments at 100 and 0.32 microgram/ml;
(§13) 3) samples are pipetted into a 96-well plate for each of the cell lines by a Beckman Biomek 1000 SL robot;
(§14) 4) after fixing with TCA each well is washed with 0.35 ml distilled water twice, not five times;
(§15) 5) after staining with sulforhodamine B each well is washed 3 times, not five times;
(§16) 6) the growth inhibition (I) as % of control, is calculated using the RS-1 data package (BBN Software), for every concentration of drug, as follows: [formula] wherein: T is optical density measurement for treated cells after 48 hours;
(§17) 7) IC50 of growth inhibition is determined graphically from dose response curves, as is known in the art.

The subject of another data set is Human Tumor cell lines. Description: Antiproliferative activity in panel of human tumor cell lines (PROTOCOL 1 and PROTOCOL 2). Format: cell-based. Particulars: for IC50: Homo sapiens, average over the tumor cell lines of Table 3. How it is done:
(§18) The antiproliferative activity of the compounds of Formula I in an Adult Bovine Aortic Endothelial (ABAE) cell line and in Human Tumor cells lines is evaluated in three similar assays that measure growth inhibition. The assays are identified as follows:
as §1, §2
(§19) All cell lines are maintained in log phase in RPMI 1640 media, supplemented with 5% fetal calf serum, penicillin/streptomycin and 2 mM L-glutamine. Cultures are renewed after 20 passages with cells from a fresh stock of batch-frozen early passage cells. Cell lines are routinely checked for mycoplasma contamination (Genprobe). In a laminar flow hood, cells (1-5×10^4) are plated into 96-well microtiter plates in a volume of 0.1 ml/well with a bulk microtiter dispenser (Denley). […] At this concentration, dimethylsulfoxide has no effect on cell growth. Compounds are added using a Tomtec dispenser which simultaneously dispenses from one 96-well plate, containing the drug dilutions, to the plates containing the cells. After two days of continuous drug exposure, 50% cold trichloroacetic acid (TCA) is added to 10% final concentration to fix the cells, and after 60 minutes at 4° C., the TCA is aspirated and the plates are washed 5 times with deionized water using a microtiter plate washer. The number of cells on the plate are quantitated using a protein dye-binding assay (Monks et al., 1991). A 0.4% solution of the dye, sulforhodamine B, in glacial acetic acid is added to the plates, and the plates are washed 5 times with 1% glacial acetic acid using the automatic plate washed. The bound stain is solubilized with 0.1 ml of 10 mM Tris base. The optical densities are read from an automatic spectrophotometric plate reader (Dynatech) directly to a main frame computer (VAX 8600).
as §4, §5, §6, §7, §8, §9, §10, §11, §12, §13, §14
5) after staining with sulforhodamine B each well is washed 3 times, not five times; […]

The next data set deals with A2780/DDP. Description: Antiproliferative activity in human tumor cell lines (A2780/DDP). The following applies: A2780/DDP ovarian tumor cell line. Format: cell-based. The method, then:
as §1, §2, §3, §4, §5, §6, §7, §8, §9, §10, §11, §12, §13, §14, §15, §16, §17

Another data set has as its system MIP. Briefly: Antiproliferative activity in human tumor cell lines (MIP). Format: cell-based. Particulars: MIP colon tumor cell line. The method, then:
as §1, §2, §19, §4, §5, §6, §7, §8, §9, §10, §11, §12, §13, §14, §15
(§20) 6) the growth inhibition (I) as % of control, is calculated using the RS-1 data package (BBN Software), for every concentration of drug, as follows: [formula] wherein: T is optical density measurement for treated cells after 48 hours; […]

In another data set the test system is SW620. Description: Antiproliferative activity in human tumor cell lines (SW620). The data set is classed as cell-based. Particulars: SW-620, SW620 colon tumor cell line. The method, then: as §1, §2, §19, §4, §5, §6, §7, §8, §9, §10, §11, §12, §13, §14, §15, §20
A further data set relates to A2780S. Briefly: Antiproliferative activity in human tumor cell lines (A2780S). Format: cell-based. Particulars: A2780S ovarian tumor cell line. The method, then:
as §1, §2, §3, §4, §5, §6, §7, §8, §9, §10, §11, §12, §13, §14, §15, §16, §17

The test system of the next data set is CACO2. Briefly: Antiproliferative activity in human tumor cell lines (CACO2). The following applies: Caco-2, CACO2 colon tumor cell line. The data set is classed as cell-based. How it is done: as §1, §2, §19, §4, §5, §6, §7, §8, §9, §10, §11, §12, §13, §14, §15, §20
Another data set deals with angiogenesis. Particulars: Cancer Research 51, 672-675, Brem et al; cited from earlier work.
In data set [1] the test system is Adult Bovine Aortic Endothelial (ABAE) cell line. Briefly: Antiproliferative activity in Adult Bovine Aortic Endothelial (ABAE) cell line, PROTOCOL 3. Particulars: 4 day assay (Protocol 3). The data set is classed as cell-based. How it is done: as §18, §1
Antiproliferative Activity in Adult Bovine Aortic Endothelial (ABAE) Cell Line
ABAE cells are grown in DMEM media (Mediatech Washington, D.C.) supplemented with 10% calf serum (Hyclone). ABAE cells are plated in 24-well dishes at 8,000 cells/well, followed by the addition of increasing concentrations of 7-[substituted amino]-9-[(substituted glycyl)amido]-6-demethyl-6-deoxytetra-cyclines. After four days, the cells are detached and counted. […] The growth inhibition (I) as % of control is calculated as follows: [formula] wherein: Nc is the number of cells in untreated wells;
Nt is the number of cells in treated wells;
No is the number of plated cells.
IC50 of growth inhibition is determined from the sets of I values plotted by Kaleidograph software (Abelbeck Software).
Table 2 presents the results depicting the antiproliferative activity of the compounds of Formula I against an adult bovine aortic endothelial cell line (ABAE), as evaluated by PROTOCOL 1 and PROTOCOL 3. The results are presented in terms of IC50 and are as follows.

The mark [2] stands for this setting: highest concentration, human tumor cell lines.

Turning to `CN(C)c1cc(NC(=O)CN2CCCC2)c(O)c2c1CC1CC3[C@H](N(C)C)C(O)=C(C(N)=O)C(=O)[C@@]3(O)C(O)=C1C2=O` (stereo partly drawn) [Example 3, [7S-(7α,10aα)]-N-[9-(Aminocarbonyl)-4,7-bis(dimethylamino)-5,5a,6,6a,7,10,10a,12-octahydro-1,8-10a,11-tetrahydroxy-10,12-dioxo-2-naphthacenyl]-1-pyrrolidineacetamide dihydrochloride], the IC50 amounted to 2.3 µg/mL in the data set on HTB 161; 2.4 µg/mL in the data set with Human Tumor cell lines; 2.7 µg/mL in the data set on A2780/DDP; 2.45 µg/mL in the data set with MIP; 2.3 µg/mL with SW620; 2.4 µg/mL in the data set on A2780S.
In the case of `CCCN(CCC)c1cc(NC(=O)CN(C)C)c(O)c2c1CC1CC3[C@H](N(C)C)C(O)=C(C(N)=O)C(=O)[C@@]3(O)C(O)=C1C2=O` (stereo partly drawn) [Example 6, [4S-(4α,12aα)]-4-(Dimethylamino)-9-[[(dimethylamino)acetyl]amino]-7-(dipropylamino)-1,4,4a,5,5a,6,11,12a-octahydro-3,10,12,12a-tetrahydroxy-1,11-dioxo-2-naphthacenecarboxamide sulfate (1:1)], the IC50 in the data set on CACO2 is 8 µg/mL; in the data set on HTB 161 it was 3 µg/mL; with Human Tumor cell lines, 5.1 µg/mL; in the data set with A2780/DDP, 3 µg/mL; in the data set on MIP, 10 µg/mL; with SW620, 3 µg/mL. In the data set on A2780S, 3.5 µg/mL corresponded to half-maximal inhibition (IC50).
As to `CCCCN(CC1CC1)c1cc(NC(=O)CN(C)C)c(O)c2c1CC1CC3C(N(C)C)C(O)=C(C(N)=O)C(=O)C3(O)C(O)=C1C2=O` (stereo not drawn) [Example 7, 7-[Butyl(cyclopropylmethyl)amino]-4-(dimethylamino)-9 [[(dimethylamino)acetyl]amino]-1,4,4a,5,5a,6,-11,12a-octahydro-3,10,12,12a-tetrahydroxy-1,11-dioxo-2-naphthacenecarboxamide sulfate (1:2)], the IC50 with CACO2 stood at 10 µg/mL; in the data set on HTB 161 it was 3 µg/mL; with Human Tumor cell lines, 5.1 µg/mL; in the data set with A2780/DDP it was 3 µg/mL; with MIP, 8 µg/mL; in the data set with SW620, 3.5 µg/mL. In addition, it took 3 µg/mL to reach half-maximal inhibition in the data set on A2780S (IC50).
`CC(C)CN(CC(C)C)c1cc(NC(=O)CN(C)C)c(O)c2c1CC1CC3[C@H](N(C)C)C(O)=C(C(N)=O)C(=O)[C@@]3(O)C(O)=C1C2=O` (stereo partly drawn) [Example 8, [4S-(4α,12aα)]-7-[Bis(2-methylpropyl)amino]-4-(dimethylamino)9-[[(dimethylamino)acetyl]amino]-1,4,4a,5,5a,6,11,12a-octahydro-3,10,12,12a-tetrahydroxy-1,11-dioxo-2-naphthacenecarboxamide sulfate]: the IC50 in the data set with CACO2 was found to be 6 µg/mL; in the data set with HTB 161, 2.5 µg/mL; in the data set on Human Tumor cell lines it was 4 µg/mL; in the data set with A2780/DDP, 1.5 µg/mL; in the data set with MIP it was 10 µg/mL; with SW620, 1.5 µg/mL. Also, half-maximal inhibition in the data set with A2780S (IC50) required 2.5 µg/mL. Moreover, in the data set on Human Tumor cell lines (setting [2]), the “cell growth at highest concentration” value was “the cells continue to grow”. For the same compound, the dead floating cells entry in the data set with Human Tumor cell lines (setting [2]) was “Dead floating cells were not observed”. Moreover, the “inhibition of cell growth” value in the data set with Human Tumor cell lines (highest concentrations, 6 human tumor cell lines, FIG. 2) is recorded as “no 100% inhibition of cell growth”.
`CN(C)c1ccc(O)c2c1C[C@H]1C[C@H]3[C@H](N(C)C)C(O)=C(C(N)=O)C(=O)[C@@]3(O)C(O)=C1C2=O` [Minocycline, reference compound]: inhibition in the data set with CACO2 was half-maximal at 9 µg/mL (≈ 19.7 µM) (IC50). In addition, the “inhibition of angiogenesis vs combination therapy of heparin and cortisone” value in the data set on angiogenesis is “inhibits angiogenesis to an extent comparable to that of the combination therapy of heparin and cortisone”. Moreover, the “activity upon incubation with cells” value in data set [1] is reported as “losing its activity upon incubation with cells”.
